Test results from publication PMC10386950 (Clinical Pharmacokinetics, 2023).

Test system: UDP-glucuronosyltransferases (UGTs)
Assay: Metabolic ratio
Assay type: in vivo, human
Details: Child C patients

Compound: OCc1ncc2n1-c1ccc(Cl)cc1C(c1ccccc1F)=NC2 [1′-Hydroxymidazolam]
- Decrease of the MR for glucuronide formation: approximately 80%
